Marks after values point to notes of the source that are not given here. Peptide text beside a SMILES is read from it. * marks the point of attachment. X74 = O=C1C=CC(=O)N1c1cccc(CCCCCCCCCCC(=O)*)c1; X84 = O=C1C=CC(=O)N1c1ccccc1CCCCCCCCCCCCC(=O)*; X54 = O=C1C=CC(=O)N1c1cccc(CCCCCCC(=O)*)c1; X52 = O=C1C=CC(=O)N1c1ccccc1CCCCCCCC(=O)*; X61 = O=C1C=CC(=O)N1c1cccc(CCCC(=O)*)c1
Experiments:
[1] = test system: IL-1β production by mouse peritoneal macrophages; assay: IL-1β production by mouse peritoneal macrophages (ELISA); type: cell-based; conditions: for Inhibition rate: IL-1β production, vs model group; for IL-1β: mouse peritoneal macrophages, 48 h, ELISA
Procedure: Mice were injected intraperitoneally with 1 mL of broth culture medium (containing 6% of starch). Three days later, mice peritoneal macrophages were taken aseptically and washed twice with 1640 culture medium, and the cell concentration was adjusted to 2×10^6 cells/mL. The solutions were injected into 24-well culture plates at 1 mL per well. The cells were incubated in a cell incubator for 3 h and vibrated once every 30 min to make the cells fully adhere to the wall. Then, the cells were washed twice with a culture solution to remove non-adhered cells. PBS was added to the blank group, positive drug Dex was added to the positive group, no drug was added to the model group, and polypeptides X1-X90 with low, medium and high concentrations were added to the test groups; and the cells were continuously cultured for 48 h after administration, and then centrifuged at 1000 r/min for 15 min. The supernatant was collected as a sample to be tested for IL-1β activity.

[2] = test system: xylene-induced ear swelling; assay: Xylene-induced mouse ear swelling; type: in vivo; conditions: Kunming mice, injected once a day for 5 days; for Swelling degree / Swelling degree (mg): right minus left ear piece weight 2 h after xylene; for Inhibition rate (%): xylene-induced ear swelling
Procedure: Kunming mice were taken, a normal saline group was taken as a blank control group, an aspirin group (200 mg/kg) was taken as a positive control group, and X1-X90 administration groups were taken as test groups. The mice were injected once a day for 5 consecutive days. The blank control group was given an equal volume of normal saline. One hour after the last administration, 0.05 mL of xylene was applied to both sides of the right ear of each mouse to cause inflammation, while no drug was applied to the left ear as a normal ear. Two hours later, the mice were put to death by dislocation. Two ears were cut along the auricle. Ear pieces were taken with a puncher and weighed, and the swelling degree and the swelling rate were calculated. Swelling degree=right ear piece weight-left ear piece weight, swelling rate=(swelling degree/left ear piece weight)*100%. Statistical t-test was conducted on the experimental results. *P<0.05 indicates significant difference, and **P<0.01 indicates extremely significant difference.

[3] = test system: retinal vascular endothelial nuclei; assay: Neovascularization in a rat model of premature retinopathy; type: in vivo, rats; conditions: dose 0.05 μM in the vitreous chamber from day 7 of modeling for one week; counted on day 14; oxygen-induced neonatal rats
Procedure: Using a fluctuating oxygen-induced animal model, newborn rats born naturally on the same day (within 12 h) were randomly divide into three groups: an oxygen model group, an oxygen treatment group and a normal control group. The oxygen model was further divided into three sub-group model groups, and the sub-group model groups and the treatment group were all placed in a semi-closed oxygen chamber made of organic glass; medical oxygen was introduced into the chamber, and the concentration was adjusted to 80%±2% by an oxygen meter; nitrogen was introduced into the oxygen chamber after 24 h, and the oxygen concentration was adjusted to 10%±2% rapidly and maintained for 24 h. This was repeated to keep the oxygen concentration in the oxygen chamber alternating between 80% and 10% every 24 h, the oxygen concentration was maintained for 7 d, and then the rats were fed in the air. The oxygen concentration was monitored 8 times a day, and the ambient temperature in the chamber was controlled at 23° C.±2° C. Bedding was replaced, feed was added, and water and mother rats were replaced once. The normal control group was placed in the animal room feeding environment. […] The oxygen treatment group was divided into three subgroups. On day 7 of modeling, X1-[…], […]-[…] and […]-X90 were injected in the vitreous chamber respectively, and the oxygen model group and the control group were only given normal saline for one week. On day 14, after the rats were anesthetized by diethyl ether and killed, eyeballs were extracted and fixed in 40 g/L paraformaldehyde solution for 24 h. Gradient dehydration by alcohol was performed, and the eyeballs were processed by xylene to be transparent. After waxing, the eyeballs were sectioned continuously to a thickness of 4μm, and the periphery of the optic disc should be avoided as much as possible. The sections were parallel to the sagittal plane from cornea to the optic disc. Ten sections of each eyeball were randomly taken and stained with hematoxylin eosin, the number of vascular endothelial nuclei that broke through the inner limiting membrane of the retina (only the number of vascular endothelial nuclei closely related to the inner limiting membrane were counted) was counted, and statistics of the average number of cells per section per eyeball was performed. Results: In the control group, there were no vascular endothelial nuclei that broke through the inner limiting membrane of the retina and grew into vitreous body, or the vascular endothelial nuclei were occasionally found in only a few sections. In the model group, there were many vascular endothelial nuclei that broke through the inner limiting membrane of the retina, some appeared alone, and some appeared in clusters. At the same time, on some sections, these vascular endothelial nuclei were also found adjacent to deep retinal vessels, confirming that they originated from the retina rather than the vitreous body or other ocular tissues. In the treatment group, only a few vascular endothelial nuclei that broke through the inner limiting membrane of retina could be seen in the sections.

HUVECs = assay: Transwell migration inhibition on HUVECs; type: cell-based, human; conditions: for Inhibition rate (%): HUVEC migration vs blank control; for Cell migration number (Mean ± SD): HUVECs, transwell, 24 h
[4] = test system: corneal neovascularization; assay: Corneal neovascularization induced by alkali burn in BALB/c mice; type: in vivo; parameters: Inhibition rate (corneal neovascularization): concentration or dose not given beside the values; conditions: day 14 after alkali burn, vitreous injection once a day for 1 week

| Structure (SMILES) | Inhibition rate ([1]; dose 0.05 μM) [%] | IL-1β ([1]; dose 0.05 μM) [pg/mL] | Inhibition rate ([1]; dose 0.1 μM) [%] | IL-1β ([1]; dose 0.1 μM) [pg/mL] | Inhibition rate ([1]; dose 0.2 μM) [%] | IL-1β ([1]; dose 0.2 μM) [pg/mL] | Inhibition rate (%) ([2]; dose 2 mg/kg) | Inhibition rate (%) ([2]; dose 4 mg/kg) | Swelling degree (mg) ([2]; dose 8 mg/kg) | Inhibition rate (%) ([2]; dose 8 mg/kg) | Nuclei count (retinal vascular endothelial nuclei, average per section per eyeball) [3] | Inhibition rate (%) (HUVECs; dose 0.05 μM) | Inhibition rate (%) (HUVECs; dose 0.1 μM) | Inhibition rate (%) (HUVECs; dose 0.2 μM) | Cell migration number (Mean ± SD) (HUVECs; dose 0.05 μM) | Cell migration number (Mean ± SD) (HUVECs; dose 0.1 μM) | Cell migration number (Mean ± SD) (HUVECs; dose 0.2 μM) | Inhibition rate (corneal neovascularization) [4] [%] | MVD (corneal microvessel density) [4] | Swelling degree (mg) ([2]; dose 4 mg/kg) | further results |
| --- | --- | --- | --- | --- | --- | --- | --- | --- | --- | --- | --- | --- | --- | --- | --- | --- | --- | --- | --- | --- | --- |
| C[C@H](NC(=O)CNC(=O)[C@H](CCCNC(=N)N)NC(=O)CCCCCCc1cccc(N2C(=O)C=CC2=O)c1)C(=O)N[C@@H](CC(=O)O)C(=O)N[C@@H](CCCNC(=N)N)C(=O)N[C@@H](C)C(=O)NCC(=O)NCC(=O)NCC(=O)NCC(=O)N[C@@H](CCCNC(=N)N)C(=O)NCC(=O)N[C@@H](CC(=O)O)C(=O)O [X30] (X54-RGADRAGGGGRGD-OH) | 28.30 | 674.82 ± 10.45 | 33.96 | 621.53 ± 19.69 | 37.33 | 589.79 ± 19.66 | 16.69 | 18.62 | 3.77 ± 0.38** mg | 39.49 | 8.256 ± 3.403 | 41.12 | 53.55 | 53.58 | 631.10 ± 64.04 | 497.88 ± 65.38 | 497.56 ± 68.24 | 47.13 | 35.55 ± 5.717 | – | Swelling degree ([2]; dose 2 mg/kg): 5.19 ± 0.57 mg; Swelling degree ([2]; dose 4 mg/kg): 5.07 ± 0.49 mg |
| C[C@H](NC(=O)CNC(=O)[C@H](CCCNC(=N)N)NC(=O)CCCc1cccc(N2C(=O)C=CC2=O)c1)C(=O)N[C@@H](CC(=O)O)C(=O)N[C@@H](CCCNC(=N)N)C(=O)N[C@@H](C)C(=O)NCC(=O)NCC(=O)NCC(=O)NCC(=O)N[C@@H](CCCNC(=N)N)C(=O)NCC(=O)N[C@@H](CC(=O)O)C(=O)O [X27] (X61-RGADRAGGGGRGD-OH) | 25.91 | 697.32 ± 17.18 | 30.97 | 649.68 ± 18.74 | 33.62 | 624.72 ± 14.38 | 13.96 | 23.60 | 3.13 ± 0.38* mg | 27.13 | 8.358 ± 1.328 | 46.39 | 49.01 | 53.38 | 574.65 ± 60.83 | 546.51 ± 46.67 | 499.65 ± 59.06 | 43.93 | 37.70 ± 3.805 | 4.76 ± 0.89* mg | Swelling degree ([2]; dose 2 mg/kg): 5.36 ± 0.32 mg |
| C[C@H](NC(=O)CNC(=O)[C@H](CCCNC(=N)N)NC(=O)CCCCCCCCCCc1cccc(N2C(=O)C=CC2=O)c1)C(=O)N[C@@H](CC(=O)O)C(=O)N[C@@H](CCCNC(=N)N)C(=O)N[C@@H](C)C(=O)NCC(=O)NCC(=O)NCC(=O)NCC(=O)N[C@@H](CCCNC(=N)N)C(=O)NCC(=O)N[C@@H](CC(=O)O)C(=O)O [X34] (X74-RGADRAGGGGRGD-OH) | 18.47 | 767.28 ± 18.52 | 19.97 | 753.21 ± 13.97 | 28.14 | 676.31 ± 16.02 | 38.04 | 46.07 | 3.2 ± 0.39** mg | 48.64 | 7.292 ± 3.827 | 47.95 | 52.08 | 53.69 | 557.95 ± 42.69 | 513.64 ± 43.27 | 496.39 ± 56.37 | 48.36 | 34.72 ± 6.051 | 3.36 ± 0.53** mg | Swelling degree (mg) ([2]; dose 2 mg/kg): 3.86 ± 0.43** mg |
| C[C@H](NC(=O)CNC(=O)[C@H](CCCNC(=N)N)NC(=O)CCCCCCCc1ccccc1N1C(=O)C=CC1=O)C(=O)N[C@@H](CC(=O)O)C(=O)N[C@@H](CCCNC(=N)N)C(=O)N[C@@H](C)C(=O)NCC(=O)NCC(=O)NCC(=O)NCC(=O)N[C@@H](CCCNC(=N)N)C(=O)NCC(=O)N[C@@H](CC(=O)O)C(=O)O [X19] (X52-RGADRAGGGGRGD-OH) | 37.19 | 591.13 ± 10.54 | 37.27 | 590.42 ± 10.34 | 37.39 | 589.21 ± 12.08 | 20.06 | 36.28 | 3.8 ± 0.03** mg | 39.00 | 7.236 ± 1.218 | 40.99 | 46.77 | 54.44 | – | – | – | 41.43 | 39.38 ± 4.833 | 3.97 ± 0.61** mg | Swelling degree (mg) ([2]; dose 2 mg/kg): 4.98 ± 0.72* mg |
| C[C@H](NC(=O)CNC(=O)[C@H](CCCNC(=N)N)NC(=O)CCCCCCCCCCCCc1ccccc1N1C(=O)C=CC1=O)C(=O)N[C@@H](CC(=O)O)C(=O)N[C@@H](CCCNC(=N)N)C(=O)N[C@@H](C)C(=O)NCC(=O)NCC(=O)NCC(=O)NCC(=O)N[C@@H](CCCNC(=N)N)C(=O)NCC(=O)N[C@@H](CC(=O)O)C(=O)O [X24] (X84-RGADRAGGGGRGD-OH) | 29.88 | 659.97 ± 17.07 | 31.39 | 645.67 ± 11.87 | 41.69 | 548.82 ± 19.58 | 15.73 | 20.06 | 4.34 ± 0.68** mg | 30.34 | 7.699 ± 3.108 | 49.57 | 49.95 | 51.01 | 540.49 ± 60.98 | 536.51 ± 42.41 | 525.06 ± 53.33 | 46.24 | 36.15 ± 4.199 | 4.98 ± 0.19* mg | Swelling degree ([2]; dose 2 mg/kg): 5.25 ± 0.06 mg |

— patent US20200270309A1, “MALEIMIDE GROUP-MODIFIED ANGIOGENESIS INHIBITOR HM-1 AND USE THEREOF” (NANJING ANJI BIOLOGICAL TECHNOLOGY CO., LTD, priority 2017, published 2020)
